According to PubChem BioAssay (NCI):
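Briefly, cells in 96-well plates were exposed to five compound concentrations for 48 h, and endpoints were estimated by linear interpolation. TGI: total growth inhibition.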

What was measured:
Assay in all cases: NCI anticancer screen, dose series, 48 h
HOP-18 NSCLC = test system: HOP-18 NSCLC
HOP-92 NSCLC = test system: HOP-92 NSCLC
KM20L2 colon = test system: KM20L2 colon
LOX IMVI melanoma = test system: LOX IMVI melanoma
LXFL 529 NSCLC = test system: LXFL 529 NSCLC
NCI-H23 lung = test system: NCI-H23 lung
NCI-H522 lung = test system: NCI-H522 lung
OVCAR-8 ovarian = test system: OVCAR-8 ovarian
SK-OV-3 ovarian = test system: SK-OV-3 ovarian
NCI-H226 lung = test system: NCI-H226 lung
XF 498 CNS = test system: XF 498 CNS
OVCAR-4 ovarian = test system: OVCAR-4 ovarian

SMILES	TGI (HOP-18 NSCLC)	TGI (HOP-92 NSCLC)	TGI (KM20L2 colon)	TGI (LOX IMVI melanoma)	TGI (LXFL 529 NSCLC)	TGI (NCI-H23 lung)	TGI (NCI-H522 lung)	TGI (OVCAR-8 ovarian)	TGI (SK-OV-3 ovarian)	TGI (NCI-H226 lung)	TGI (XF 498 CNS)	TGI (OVCAR-4 ovarian)
O=C(O)c1ccc(Nc2nc3nn(Cc4ccccc4)cc3c(=O)s2)cc1	> 100 µM	> 100 µM	> 100 µM	> 100 µM	> 100 µM	> 100 µM	> 100 µM	> 100 µM	> 100 µM	–	–	–
CCCCCCCCCC(=O)NC(Cc1ccc(O)cc1)C(=O)NCCCNCCCCNCCCNC(=O)[C@@H](N)CCCN=C(N)N (stereo partly drawn)	–	–	> 100 µM	> 100 µM	> 100 µM	> 100 µM	69.7 µM	> 100 µM	> 100 µM	> 100 µM	> 100 µM	–
Cc1ccc(C2C(Cl)C(=O)N2NC(=O)c2ccc(N)cc2)cc1 (stereo not drawn)	–	28.5 µM	48.2 µM	24.4 µM	29.3 µM	38.3 µM	25.6 µM	38.8 µM	37.4 µM	65.4 µM	26.5 µM	> 100 µM
CC(=O)NC1=C(N)C(=O)c2ccccc2C1=O	> 100 µM	> 100 µM	> 100 µM	28.6 µM	> 100 µM	> 100 µM	> 100 µM	> 100 µM	> 100 µM	–	> 100 µM	–
OC12CCC3(O)c4ccccc4C3C1c1ccccc12 (stereo not drawn)	> 100 µM	–	> 100 µM	> 100 µM	> 100 µM	> 100 µM	> 100 µM	> 100 µM	> 100 µM	> 100 µM	> 100 µM	> 100 µM
OC12c3ccccc3C1CCCCCC21OCCCO1 (stereo not drawn)	> 100 µM	–	> 100 µM	> 100 µM	> 100 µM	> 100 µM	> 100 µM	> 100 µM	> 100 µM	> 100 µM	–	> 100 µM
O=C(c1ccco1)N(C(=S)N1CCN(c2ccccn2)CC1)c1ccccc1	> 100 µM	> 100 µM	> 100 µM	> 100 µM	> 100 µM	> 100 µM	> 100 µM	> 100 µM	> 100 µM	> 100 µM	> 100 µM	> 100 µM
C=CCn1c(=N)/c(=C(\N)O)s/c1=C1/SC(=S)N(c2ccc(C)cc2)C1=O	> 100 µM	> 100 µM	–	–	> 100 µM	> 100 µM	> 100 µM	> 100 µM	> 100 µM	> 100 µM	–	–
CCn1c(CSc2nc(-c3ccccc3)c(-c3ccccc3)[nH]2)n[nH]c1=S	–	> 100 µM	> 100 µM	> 100 µM	> 100 µM	> 100 µM	> 100 µM	> 100 µM	> 100 µM	> 100 µM	> 100 µM	> 100 µM
CC[n+]1c(/C=C/c2ccc(N(CCCl)CCCl)cc2)ccc2cc(I)ccc21	8.54 µM	2.13 µM	1.88 µM	2.85 µM	1.52 µM	23.5 µM	1.64 µM	–	6.42 µM	5.63 µM	–	2.29 µM
CCOC(=O)C1(C(=O)OCC)C=C(c2ccccc2)N(C2OC(COC(C)=O)C(OC(C)=O)C(OC(C)=O)C2OC(C)=O)C1=S (stereo not drawn)	–	> 100 µM	–	> 100 µM	–	> 100 µM	> 100 µM	> 100 µM	> 100 µM	> 100 µM	–	> 100 µM
N#Cc1c(-c2ccc([N+](=O)[O-])cc2)cc(-c2ccc(Nc3ccnc4cc(Cl)ccc34)cc2)nc1N	–	48.7 µM	–	2.9 µM	–	65.6 µM	11.2 µM	> 23.3 µM	52.5 µM	> 95.2 µM	–	15.2 µM
NS(=O)(=O)c1nnc(NS(=O)(=O)c2ccc([N+](=O)[O-])cc2)s1	–	> 100 µM	–	> 100 µM	–	> 100 µM	77.5 µM	> 100 µM	> 100 µM	> 100 µM	–	> 100 µM
Nc1c2cc3ccc2nc2ccc(cc12)OCCOCCOCCOCCOCCOCCO3	–	> 10 µM	–	> 10 µM	–	> 10 µM	> 10 µM	> 10 µM	> 10 µM	> 10 µM	–	> 10 µM
CCNC(=S)NNC(=O)CSc1nc2ccc(I)cc2c(=O)n1Cc1ccccc1	–	97.7 µM	–	> 100 µM	–	> 100 µM	> 100 µM	> 70.4 µM	> 100 µM	> 95.5 µM	–	> 95.5 µM
COc1ccc(/C(Cl)=C(\C=O)c2ccc(Cl)cc2)cc1OC	> 100 µM	–	31.9 µM	14.5 µM	37.4 µM	8.36 µM	6.27 µM	28.6 µM	> 100 µM	36.6 µM	–	73.6 µM
O/N=C\C(=Nc1ccc(Cc2ccc(N=C(/C=N\O)NO)cc2)cc1)NO	> 100 µM	> 100 µM	> 100 µM	> 100 µM	> 100 µM	> 100 µM	> 100 µM	> 100 µM	> 100 µM	> 100 µM	> 100 µM	> 100 µM
